The values below come from US20220380347A1, “INHIBITORS OF CYSTEINE PROTEASES AND METHODS OF USE THEREOF” (Pardes Biosciences, Inc., priority 2020, published 2022).

Where two headings read alike, the source gives them in different places.

What is called EC50 is the concentration giving half of the maximal effect. A word on the IC50: it is the point on the concentration scale where inhibition reaches its midpoint.

In one assay the target is 229E Mpro (Human coronavirus 229E, UniProt P0C6X1). Briefly: 229E Mpro enzymatic assay (standard methods, SARS-CoV2 Mpro assay given as exemplary). The class given is biochemical, human coronavirus (HCov) 229E. In outline: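 Run by standard methods, with the SARS-CoV-2 Mpro protocol given as the model: E. coli-expressed C-His6 protease at 25 nM and substrate at 25 μM (Km 13.5 μM). Buffer pH 7.3 with 5 mM TCEP and 0.1% BSA; % inhibition versus controls fitted to variable-slope log(inhibitor)-response for IC50.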

Assay [1] addresses COVID-19 (nCoV-2019, SARS-CoV2) Mpro (Severe acute respiratory syndrome coronavirus 2, UniProt P0DTD1). Briefly: COVID-19 (nCoV-2019, SARS-CoV2) Mpro enzymatic assay. Particulars: 25 nM Mpro, 25 μM substrate; read-out: COVID-19 Mpro IC50. In kind it is biochemical.
Another assay deals with HCov OC43. Briefly: HCoV OC43 cytopathic effect (CPE) assay, CellTiter Glo. The class given is cell-based, human coronavirus (HCov) OC43. A general note: Protection from cytopathic effect is a common read-out in antiviral testing.
Setting [2] is: read-out: OC43 IC50 (uM) MEDIAN, median.
Setting [3] is: Betacoronavirus 1, OC43, read-out: OC43 IC50 (uM) MEDIAN, median.

Chain of 229E Mpro (P0C6X1 2966-3267): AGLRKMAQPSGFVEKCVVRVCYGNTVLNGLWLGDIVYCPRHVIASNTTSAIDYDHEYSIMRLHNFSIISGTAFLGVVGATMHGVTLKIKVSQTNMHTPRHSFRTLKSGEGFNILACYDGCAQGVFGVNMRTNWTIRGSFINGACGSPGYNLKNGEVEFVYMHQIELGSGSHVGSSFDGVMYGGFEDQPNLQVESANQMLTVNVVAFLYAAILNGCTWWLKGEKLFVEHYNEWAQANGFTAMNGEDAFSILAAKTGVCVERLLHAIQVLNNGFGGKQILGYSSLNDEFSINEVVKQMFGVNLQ

In the case of `CC1(C)CN(C#N)[C@@H](C(=O)N(c2ccc(C(C)(C)C)cc2)C(C(=O)NC2CCOCC2)c2cccnc2)CO1` (single isomer, unassigned) [1141 Isomer 1], the EC50 on 229E Mpro (229E Mpro EC50) was 10000 to 30000 nM. The IC50 lay within 2000 to 10000 nM in assay [1] and 2 to 10 µM in the assay with HCov OC43 (setting [2]).
In the case of `C[C@@]1(O)C[C@H](C(=O)N(c2ccc(S(F)(F)(F)(F)F)cc2)C(C(=O)NC2CCC(F)(F)CC2)c2ccc(F)nc2)N(C#N)C1` (single isomer, unassigned) [1157 Isomer 2], at 229E Mpro (read-out: 229E Mpro EC50), the EC50 is < 2000 nM. Also, the values for the IC50 (in assay [1]; in the assay on HCov OC43 (setting [2])) were 2000 to 10000 nM and 2 to 10 µM, respectively.
Regarding `CC1(C)CN(C#N)[C@@H](C(=O)N(c2ccc(S(F)(F)(F)(F)F)cc2)C(C(=O)NC2CCC(F)(F)CC2)c2cncc(F)c2)CO1` (single isomer, unassigned) [1086b Isomer 1], the EC50 on 229E Mpro (229E Mpro EC50) is < 2000 nM. Further, the IC50 in assay [1] was < 2000 nM; with HCov OC43 (setting [3]), < 2 µM.
Take `CO[C@@H]1C[C@H](C(=O)N(c2ccc(S(F)(F)(F)(F)F)cc2)C(C(=O)NCC(=O)N2CCCC2)c2cccnc2)N(C#N)C1` (stereo partly drawn) [Compound 1182, (2R,4R)-1-cyano-4-methoxy-N-[2-oxo-2-[(2-oxo-2-pyrrolidin-1-yl-ethyl)amino]-1-(3-pyridyl)ethyl]-N-[4-(pentafluoro-λ6-sulfanyl)phenyl]pyrrolidine-2-carboxamide]: the EC50 on 229E Mpro (229E Mpro EC50) is < 2000 nM. Besides, the results for the IC50 (in assay [1]; with HCov OC43 (setting [3])) were < 2000 nM and < 2 µM, respectively.
As to `N#CN1CC(=O)NCC1C(=O)N(c1ccc(S(F)(F)(F)(F)F)cc1)C(C(=O)NC1CCC(F)(F)CC1)c1cncc(F)c1` (single isomer, unassigned) [Compound 1160 Isomer 1, 1-cyano-N-[2-[(4,4-difluorocyclohexyl)amino]-1-(5-fluoro-3-pyridyl)-2-oxo-ethyl]-5-oxo-N-[4-(pentafluoro-λ6-sulfanyl)phenyl]piperazine-2-carboxamide], on 229E Mpro (229E Mpro EC50), the EC50 was < 2000 nM. The IC50 in assay [1] was < 2000 nM; in the assay with HCov OC43 (setting [3]), < 2 µM.
Consider `CC(C)(C)c1ccc(N(C(=O)[C@H]2C[C@@H](O)CN2C#N)C(C(=O)NC2CCCC2)c2cccnc2)cc1` (single isomer, unassigned) [595 Isomer 2], for which, at 229E Mpro (read-out: 229E Mpro EC50), the EC50 is < 2000 nM. The IC50 was < 2000 nM in assay [1] and < 2 µM in the assay with HCov OC43 (setting [2]).
`CC(C)(C)c1ccc(N(C(=O)[C@H]2[C@H](F)CCN2C#N)C(C(=O)NC2CCC(F)(F)CC2)c2cncc(F)c2)cc1` (single isomer, unassigned) [1212 Isomer 1]: the EC50 at 229E Mpro (229E Mpro EC50) was < 2000 nM. The IC50 in assay [1] was < 2000 nM; in the assay on HCov OC43 (setting [3]) it was < 2 µM.
Regarding `C[C@H]1CN(C#N)[C@H]1C(=O)N(c1ccc(S(F)(F)(F)(F)F)cc1)C(C(=O)NC1CCC(F)(F)CC1)c1cncc(F)c1` (single isomer, unassigned) [1210 Isomer 1], the EC50 on 229E Mpro (229E Mpro EC50) is < 2000 nM. Besides, the IC50 in assay [1] lay within 10000 to 30000 nM; with HCov OC43 (setting [2]), 10 to 30 µM.
`Cc1nc[nH]c1C(C(=O)NC1CCC(F)(F)CC1)N(C(=O)[C@H]1C[C@@](C)(O)CN1C#N)c1ccc(S(F)(F)(F)(F)F)cc1` (single isomer, unassigned) [1324 Isomer 1] came in with an EC50 at 229E Mpro (229E Mpro EC50) of 10000 to 30000 nM. The IC50 in assay [1] was > 30000 nM; in the assay with HCov OC43 (setting [2]), > 30 µM.
`N#CN1CC(=O)NCC1C(=O)N(c1ccc(S(F)(F)(F)(F)F)cc1)C(C(=O)NC1CCC(F)(F)CC1)c1cncc(F)c1` (single isomer, unassigned) [Compound 1160 Isomer 3, 1-cyano-N-[2-[(4,4-difluorocyclohexyl)amino]-1-(5-fluoro-3-pyridyl)-2-oxo-ethyl]-5-oxo-N-[4-(pentafluoro-λ6-sulfanyl)phenyl]piperazine-2-carboxamide]: the EC50 at 229E Mpro (229E Mpro EC50) is < 2000 nM. For the same compound, the IC50 in assay [1] lay within 2000 to 10000 nM; with HCov OC43 (read-out: OC43 IC50 (uM) MEDIAN, median, listed as 1160 Isomer 3), 2 to 10 µM.
On to `CO[C@@H]1C[C@H](C(=O)N(c2ccc(S(F)(F)(F)(F)F)cc2)C(C(=O)NC2CCC(F)(F)CC2)c2cnccc2C)N(C#N)C1` (single isomer, unassigned) [Compound 1199], for which the EC50 on 229E Mpro (229E Mpro EC50) was < 2000 nM. In addition, the IC50 in assay [1] was < 2000 nM; in the assay on HCov OC43 (setting [2]), < 2 µM.
As to `N#CN1C[C@H](O)C[C@@H]1C(=O)N(c1ccc(C(F)(C(F)(F)F)C(F)(F)F)cc1)C(C(=O)NC1CCCCC1)c1cccnc1` (single isomer, unassigned) [Compound 779 Isomer 2], the EC50 on 229E Mpro (229E Mpro EC50) lay in the range of 2000 to 10000 nM. In addition, the IC50 is 2000 to 10000 nM in assay [1] and 2 to 10 µM in the assay with HCov OC43 (setting [2]).
Regarding `CO[C@@H]1C[C@H](C(=O)N(c2ccc(C3CC3)cc2F)C(C(=O)NC2CCC(F)(F)CC2)c2cnccc2C(F)(F)F)N(C#N)C1` (single isomer, unassigned) [Compound 1309 Isomer 1], the EC50 on 229E Mpro (229E Mpro EC50) was < 2000 nM. Besides, the IC50 was < 2000 nM in assay [1] and < 2 µM in the assay with HCov OC43 (setting [3]).
As for `N#CN1CC[C@H]2C[C@]21C(=O)N(c1ccc(S(F)(F)(F)(F)F)cc1)C(C(=O)NC1CCC(F)(F)CC1)c1cnccc1C(F)(F)F` (stereo partly drawn) [Compound 1263, (1R,5S)-2-cyano-N-[2-[(4,4-difluorocyclohexyl)amino]-2-oxo-1-[4-(trifluoromethyl)-3-pyridyl]ethyl]-N-[4-(pentafluoro-λ^6-sulfanyl)phenyl]-2-azabicyclo[3.1.0]hexane-1-carboxamide], the EC50 on 229E Mpro (229E Mpro EC50) was 10000 to 30000 nM. Besides, the figures for the IC50 (in assay [1]; in the assay with HCov OC43 (setting [3])) were > 30000 nM and > 30 µM, respectively.
In turn, `CC(C)(C)c1ccc(N(C(=O)[C@H]2CCCN2C#N)C(C(=O)N2CC(O)C2)c2cccnc2)cc1` (stereo partly drawn) [Compound 950, (2R)—N-(4-(tert-butyl)phenyl)-1-cyano-N-(2-(3-hydroxyazetidin-1-yl)-2-oxo-1-(pyridin-3-yl)ethyl)pyrrolidine-2-carboxamide] returned an EC50 at 229E Mpro (229E Mpro EC50) of 2000 to 10000 nM. The IC50 was in the range of 2000 to 10000 nM in assay [1] and 10 to 30 µM in the assay on HCov OC43 (setting [3]).
Consider `CO[C@@H]1C[C@H](C(=O)N(c2ccc(S(F)(F)(F)(F)F)cc2)C(C(=O)NC2CC3CCC(C2)O3)c2cccnc2)N(C#N)C1` (single isomer, unassigned) [1187 Isomer 2], for which the EC50 at 229E Mpro (read-out: 229E Mpro EC50) is < 2000 nM. Moreover, the IC50 in assay [1] is < 2000 nM; in the assay with HCov OC43 (setting [2]), < 2 µM.
As to `CC(C)(C)c1ccc(N(C(=O)[C@H]2CCCN2C#N)C(C(=O)N2CCOCC2)c2cccnc2)cc1` (single isomer, unassigned) [Compound 959 Isomer 2], the EC50 on 229E Mpro (229E Mpro EC50) is < 2000 nM. Besides, the IC50 in assay [1] lay in the range of 2000 to 10000 nM; in the assay on HCov OC43 (read-out: OC43 IC50 (uM) MEDIAN, median, listed as 959 Isomer 2), 2 to 10 µM.
On to `CO[C@@H]1C[C@H](C(=O)N(c2ccc(S(F)(F)(F)(F)F)cc2)C(C(=O)N2CCN(C(=O)OC(C)(C)C)CC2)c2cccnc2)N(C#N)C1` (stereo partly drawn) [Compound 1149b, tert-butyl-4-[2-[N-[(2R,4R)-1-cyano-4-methoxy-pyrrolidine-2-carbonyl]-4-(pentafluoro-λ6-sulfanyl)anilino]-2-(3-pyridyl)acetyl]piperazine-1-carboxylate], for which the EC50 on 229E Mpro (229E Mpro EC50) was < 2000 nM. For the same compound, the IC50 in assay [1] is < 2000 nM; in the assay with HCov OC43 (setting [3]), < 2 µM.
As for `COC(C)(C)CNC(=O)C(c1cccnc1)N(C(=O)[C@H]1CCCN1C#N)c1ccc(C(C)(C)C)cc1` (single isomer, unassigned) [Compound 427 Isomer 1], at 229E Mpro (229E Mpro EC50), the EC50 was in the range of 2000 to 10000 nM. Also, the IC50 in assay [1] was 10000 to 30000 nM; in the assay with HCov OC43 (read-out: OC43 IC50 (uM) MEDIAN, median, listed as 427 Isomer 1) it was > 30 µM.
For `CO[C@H]1C[C@H](C(=O)N(c2ccc(C(C)(C)C)cc2)C(C(=O)NC2CCCCC2)c2cccnc2)N(C#N)C1` (single isomer, unassigned) [Compound 293 Isomer 2], the EC50 on 229E Mpro (229E Mpro EC50) lay within 2000 to 10000 nM. Further, the IC50 was 10000 to 30000 nM in assay [1] and 10 to 30 µM in the assay with HCov OC43 (read-out: OC43 IC50 (uM) MEDIAN, median, listed as 293 Isomer 2).
`CC(C)(C)c1ccc(N(C(=O)[C@H]2CCCN2C#N)C(C(=O)N2CCC(N)CC2)c2cccnc2)cc1` (stereo partly drawn) [Compound 966]: the EC50 on 229E Mpro (229E Mpro EC50) is > 30000 nM. Moreover, the IC50 in assay [1] was > 30000 nM; in the assay with HCov OC43 (setting [3]), > 30 µM.
Regarding `C[C@H](NC(=O)C(c1cccnc1)N(C(=O)c1ccco1)c1ccc(-c2ccccc2)cc1)c1ccccc1` (single isomer, unassigned) [1353 Isomer 1], the EC50 on 229E Mpro (229E Mpro EC50) was < 2000 nM. The IC50 in assay [1] was < 2000 nM; with HCov OC43 (setting [3]), > 30 µM.
Take `CO[C@@H]1C[C@H](C(=O)N(c2ccc(S(F)(F)(F)(F)F)cc2)C(C(=O)NC2CCC(F)(F)CC2)c2cnccc2C)N(C#N)C1` (single isomer, unassigned) [1199 Isomer 1]: the EC50 at 229E Mpro (read-out: 229E Mpro EC50) was < 2000 nM. In addition, the IC50 is < 2000 nM in assay [1] and < 2 µM with HCov OC43 (setting [3]).
Take `CC(C)(C)c1ccc(N(C(=O)[C@H]2C[C@@](C)(O)CN2C#N)C(C(=O)NC2CCC(F)(F)CC2)c2cnccn2)cc1` (stereo partly drawn) [Compound 1326, (2R,4R)—N-(4-(tert-butyl)phenyl)-1-cyano-N-(2-((4,4-difluorocyclohexyl)amino)-2-oxo-1-(pyrazin-2-yl)ethyl)-4-hydroxy-4-methylpyrrolidine-2-carboxamide]: at 229E Mpro (229E Mpro EC50), the EC50 was < 2000 nM. The IC50 is < 2000 nM in assay [1] and < 2 µM in the assay with HCov OC43 (setting [3]).
Regarding `N#CN1C[C@H](O)C[C@@H]1C(=O)N(c1ccc(C2CC2)cc1F)C(C(=O)NC1CCCCC1)c1cccnc1` (single isomer, unassigned) [Compound 763 Isomer 1], the EC50 at 229E Mpro (229E Mpro EC50) is < 2000 nM. In addition, the IC50 in assay [1] was < 2000 nM; with HCov OC43 (setting [3]) it was < 2 µM.
